Read-outs that look alike come from different tables or passages of the source. Peptide text beside a SMILES is read from it.
Key:
[1] = system: HIF-1α/HIF-1β PPI; experiment: SICLOPPS CX5 library screen in HIF-1 RTHS with biopanning and NGS; format: cell-based, E. coli; conditions: after 2 rounds of biopanning
Source text: The HIF-1 RTHS links the PPI between HIF-1α-P22 and HIF-1β-434 fusion proteins to the life/death of the host E. coli via three reporter genes.[14] Interaction of HIF-1α and HIF-1β results in the formation of a chimeric P22/434 repressor that inhibits the transcription of the KanR and His3 reporter genes, which are required for cell survival in selection media (Figure S1). Disruption of the HIF-1α/HIF-1β PPI also disrupts the repressor complex, leading to transcription of the reporter genes and survival of colonies that contain cyclic peptide HIF-1 inhibitors. Thus, cells containing cyclic peptide inhibitors of the targeted PPI will survive and grow on selective media, whereas all others will not. The HIF-1 RTHS cells were transformed with the sequenced CX5 library and, after recovery, plated onto a selective medium. After incubation for 48 h at 37 °C, selection plates were scraped to collect all colonies, and the SICLOPPS plasmids were isolated. The extein coding region of these plasmids was subsequently sequenced by NGS. We observed sequence enrichment after one round of biopanning, with the three sequences (CAAAAA, CRLYVL, and CVTYVL) making up 7.8% of the entire library with over 10 000 copies each per 1 M reads (Figure 2a). The prevalence of the control sequence was reduced by 44% from 80 000 to 45 000 copies per million reads, which further indicated enrichment of cyclic peptide inhibitors of the HIF-1α/HIF-1β PPI in the RTHS. The next 47 sequences were present with over 1000 copies after round 1 which made up a further 15% of the library (Figure 2a). HIF-1 RTHS cells were transformed with the SICLOPPS plasmid library isolated from round 1 of biopanning, for a second round of selection. After incubation, all colonies were scraped, and plasmids were isolated and sequenced by NGS as before. We observed further sequence enrichment after the second round of biopanning, evident by the shift of the library population from the mostly low-prevalence sequences in both the naïve library and after one round of biopanning to mostly highly prevalent cyclic peptide sequences after round 2 of biopanning (Figure 2b). With 159 000 copies per 1 M reads, the most prevalent sequence is CRTYIL, while the next 14 sequences were all present with more than 10 000 copies per 1 M. The top 15 sequences make up over 50% of the entire library. The CA5 internal standard dropped to 0.5%, providing further evidence of enrichment of active inhibitors during biopanning.
All reagents were purchased from Fisher Scientific or Sigma Aldrich UK unless specified otherwise.
Restriction enzymes and microbiology reagents were purchased from New England Biolabs Inc., FisherScientific (UK) or Promega (UK) and were used as directed by the manufacturer. Primers and oligonucleotides were synthesised by Integrated DNA Technologies (UK). DNA sequencing was carried out by Eurofins MWG Operon (Germany).
Construction of the RTHS and SICLOPPS library was conducted as previously described.2 […]
Electrocompetent RTHS-HIF 1 cells2 were transformed with 100 ng freshly prepared SICLOPPS CX5 library, prepared as previously detailed.3 The recovery mixture was plated on 6 square plates containing M9 minimal media supplemented with 50 µg/mL ampicillin, 25 µg/mL Spectinomycin, 50 µg/mL kanamycin, 35 µg/mL chloramphenicol, 100 µM IPTG, 6.5 µM L-arabinose and 7.5 mM 3-amino triazole and incubate at 37 °C for 48 h. To ensure sufficie transformation efficiency, 10 µL transformation mixture was subjected to 10-fold serial dilutions plated on LB-agar with 35 µg/m […]
Chloramphenicol. […] All cells were […]
then harvested by resuspending the colonies in a total of 50 mL LB medium and transferring to a centrifuge tube and centrifugation for 30 min at 4000 rpm and 4°C. The cell pellet was then subjected to maxi prep (GeneJET Plasmid Maxiprep kit Thermo Scientific) and the resulting plasmid library was used for the next round of biopanning and NGS. The second round of bio panning was […]

[2] = target: T1, PAS-B domain of HIF-1α (Homo sapiens, UniProt Q16665); experiment: Microscale thermophoresis (MST) binding to HIF-1α PAS-B domain
T1 construct: The HIF-1a PAS-B domain was expressed and purified as previously described; made in house
T1 sequence (Q16665 228-298 limits assumed): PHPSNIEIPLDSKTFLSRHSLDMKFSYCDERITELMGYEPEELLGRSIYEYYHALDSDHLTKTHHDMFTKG
Protocol: We synthesized the top 20 cyclic peptides from the ranking approach. We also synthesized cyclo-CLLFVY as a control.[14] These compounds were assessed for binding to the PAS-B domain of HIF-1α by microscale thermophoresis (MST). […]

[3] = MST, HIF-1α PAS-B, mean (n = 3) ± SEM, read-out: KD

Molecule | Enrichment after pan 2 [%] [1] [%] | Kd [2, 3] [µM] | Kd [2] [µM] | fold better KD than the control peptide cyclo-CLLFVY in the same assay ([2]; MST, HIF-1α) [fold]
CC(C)C[C@@H]1NC(=O)[C@H](CC(N)=O)NC(=O)[C@H](CC(C)C)NC(=O)[C@H](CC(C)C)NC(=O)[C@H](Cc2ccccc2)NC(=O)[C@H](CS)NC1=O [CFLLNL, cyclo-CFLLNL] (cyclo(CFLLNL)) | 1.509 | 103 ± 8 | – | –
CC(C)C[C@@H]1NC(=O)[C@H](CCCCN)NC(=O)[C@H](CS)NC(=O)[C@H](CC(C)C)NC(=O)[C@H](CC(C)C)NC(=O)[C@H](Cc2ccccc2)NC1=O [CKLFLL] (cyclo(CKLFLL)) | 0.6884 | – | – | –
CC(C)C[C@@H]1NC(=O)[C@H](CC(C)C)NC(=O)[C@H](Cc2ccccc2)NC(=O)[C@H](C(C)C)NC(=O)[C@H](CCCCN)NC(=O)[C@H](CS)NC1=O [CKVFLL, cyclo-CKVFLL] (cyclo(CKVFLL)) | 3.064 | 42 ± 12 | – | –
CC(C)C[C@@H]1NC(=O)[C@H](CS)NC(=O)[C@H](Cc2ccccc2)NC(=O)[C@H](CC(C)C)NC(=O)[C@H](CC(C)C)NC(=O)[C@H](CS)NC1=O [CLLFCL, cyclo-CLLFCL] (cyclo(CLCLLF)) | 1.071 | – | 0.47 ± 0.01 | > 80
CC[C@H](C)[C@@H]1NC(=O)[C@H](Cc2ccccc2)NC(=O)[C@H]([C@@H](C)CC)NC(=O)[C@H](CCCNC(=N)N)NC(=O)[C@H](CS)NC(=O)[C@H](CCSC)NC1=O [CRIFIM, cyclo-CRIFIM] (cyclo(CRIFIM)) | 1.319 | 26 ± 1 | – | –
CC[C@H](C)[C@@H]1NC(=O)[C@H](CC(C)C)NC(=O)[C@H]([C@@H](C)CC)NC(=O)[C@H](CCCNC(=N)N)NC(=O)[C@H](CS)NC(=O)[C@H](CC(C)C)NC1=O [CRILIL, cyclo-CRILIL] (cyclo(CRILIL)) | 2.819 | 20 ± 1 | – | –
CC[C@H](C)[C@@H]1NC(=O)[C@H](CC(C)C)NC(=O)[C@H](CCCNC(=N)N)NC(=O)[C@H](CS)NC(=O)[C@H](C(C)C)NC(=O)[C@H]([C@@H](C)CC)NC1=O [CRLIIV, cyclo-CRLIIV] (cyclo(CRLIIV)) | 1.138 | 28 ± 2 | – | –
CC[C@H](C)[C@@H]1NC(=O)[C@H](CC(C)C)NC(=O)[C@H](CC(C)C)NC(=O)[C@H](CCCNC(=N)N)NC(=O)[C@H](CS)NC(=O)[C@H](CC(C)C)NC1=O [CRLLIL, cyclo-CRLLIL] (cyclo(CRLLIL)) | 1.196 | 20 ± 1 | – | –
CC[C@H](C)[C@@H]1NC(=O)[C@H](Cc2ccc(O)cc2)NC(=O)[C@H](CC(C)C)NC(=O)[C@H](CCCNC(=N)N)NC(=O)[C@H](CS)NC(=O)[C@H](C(C)C)NC1=O [CRLYIV, cyclo-CRLYIV] (cyclo(CRLYIV)) | 2.142 | 122 ± 4 | – | –
CC(C)C[C@@H]1NC(=O)[C@H](CCCNC(=N)N)NC(=O)[C@H](CS)NC(=O)[C@H](CC(C)C)NC(=O)[C@H](C(C)C)NC(=O)[C@H](Cc2ccc(O)cc2)NC1=O [CRLYVL, cyclo-CRLYVL] (cyclo(CRLYVL)) | 8.962 | 150 ± 40 | – | –
CC[C@H](C)[C@@H]1NC(=O)[C@H](Cc2ccccc2)NC(=O)[C@H](CCSC)NC(=O)[C@H](CCCNC(=N)N)NC(=O)[C@H](CS)NC(=O)[C@H](CC(C)C)NC1=O [CRMFIL, cyclo-CRMFIL] (cyclo(CRMFIL)) | 0.6746 | 20 ± 4 | – | –
CSCC[C@@H]1NC(=O)[C@H](CCCNC(=N)N)NC(=O)[C@H](CS)NC(=O)[C@H](CC(C)C)NC(=O)[C@H](C(C)C)NC(=O)[C@H](Cc2ccc(O)cc2)NC1=O [CRMYVL, cyclo-CRMYVL] (cyclo(CRMYVL)) | – | 58 ± 17 | – | –
CC[C@H](C)[C@@H]1NC(=O)[C@H](CCCNC(=N)N)NC(=O)[C@H](CCCNC(=N)N)NC(=O)[C@H](CS)NC(=O)[C@H](CC(C)C)NC(=O)[C@H]([C@@H](C)CC)NC1=O [CRRIIL, cyclo-CRRIIL] (cyclo(CRRIIL)) | 0.9912 | 8 ± 1 | – | –
CC(C)C[C@@H]1NC(=O)[C@H](C(C)C)NC(=O)[C@H](Cc2ccccc2)NC(=O)[C@H](CO)NC(=O)[C@H](CCCNC(=N)N)NC(=O)[C@H](CS)NC1=O [CRSFVL] (cyclo(CRSFVL)) | 0.6155 | – | – | –
CC[C@H](C)[C@@H]1NC(=O)[C@H]([C@@H](C)O)NC(=O)[C@H](CCCNC(=N)N)NC(=O)[C@H](CS)NC(=O)[C@H](CC(C)C)NC(=O)[C@H](C(C)C)NC1=O [CRTIVL, cyclo-CRTIVL] (cyclo(CRTIVL)) | 3.427 | > 250 | – | –
CC[C@H](C)[C@@H]1NC(=O)[C@H](Cc2ccc(O)cc2)NC(=O)[C@H]([C@@H](C)O)NC(=O)[C@H](CCCNC(=N)N)NC(=O)[C@H](CS)NC(=O)[C@H](CC(C)C)NC1=O [CRTYIL, cyclo-CRTYIL] (cyclo(CRTYIL)) | 15.78 | 24 ± 1 | – | –
CC(C)C[C@@H]1NC(=O)[C@H](CC(C)C)NC(=O)[C@H](Cc2ccccc2)NC(=O)[C@H](C(C)C)NC(=O)[C@H](CCCNC(=N)N)NC(=O)[C@H](CS)NC1=O [CRVFLL] (cyclo(CRVFLL)) | 0.6625 | – | – | –
CC(C)C[C@@H]1NC(=O)[C@H](C(C)C)NC(=O)[C@H](CC(C)C)NC(=O)[C@H](C(C)C)NC(=O)[C@H](CCCNC(=N)N)NC(=O)[C@H](CS)NC1=O [CRVLVL, cyclo-CRVLVL] (cyclo(CRVLVL)) | 0.8272 | 201 ± 16 | – | –
CC[C@H](C)[C@@H]1NC(=O)[C@H](Cc2ccc(O)cc2)NC(=O)[C@H](C(C)C)NC(=O)[C@H](CCCNC(=N)N)NC(=O)[C@H](CS)NC(=O)[C@H](CC(C)C)NC1=O [CRVYIL, cyclo-CRVYIL] (cyclo(CRVYIL)) | 1.306 | 31 ± 6 | – | –
CC[C@H](C)[C@@H]1NC(=O)[C@H](CC(C)C)NC(=O)[C@H](Cc2ccc(O)cc2)NC(=O)[C@H](CCCNC(=N)N)NC(=O)[C@H](CS)NC(=O)[C@H](CC(C)C)NC1=O [CRYLIL, cyclo-CRYLIL] (cyclo(CRYLIL)) | 0.6083 | 20 ± 2 | – | –
CC(C)C[C@@H]1NC(=O)[C@H](C(C)C)NC(=O)[C@H](Cc2ccc(O)cc2)NC(=O)[C@H](Cc2ccc(O)cc2)NC(=O)[C@H](CCCNC(=N)N)NC(=O)[C@H](CS)NC1=O [CRYYVL, cyclo-CRYYVL] (cyclo(CRYYVL)) | 0.6784 | 59 ± 7 | – | –
CC(C)C[C@@H]1NC(=O)[C@H](Cc2c[nH]c3ccccc23)NC(=O)[C@H](C(C)C)NC(=O)[C@H](CO)NC(=O)[C@H](CS)NC(=O)[C@H](Cc2ccc(O)cc2)NC1=O [CSVWLY, cyclo-CSVWLY] (cyclo(CSVWLY)) | 2.022 | 103 ± 28 | – | –
cyclo-CVTYVL | 3.732 | – | – | –

Source: publication PMC11494503, “Next Generation SICLOPPS Screening for the Identification of Inhibitors of the HIF-1α/HIF-1β Protein–Protein Interaction” (ACS Chemical Biology, 2024)
